Test results: the CheMixHub ionic liquid set

Experiment: xn = mol fraction of the nth substance listed

CCCCC[N+](CCCCC)(CCCCC)CCCCC.O=[N+]([O-])[O-] + CCCCCCCCCCCCOS(=O)(=O)[O-].[Na+] + O
viscosity [mPa·s], 100 kPa
Details | x2 = 1.81e-06, x1 = 0.0001802 | x2 = 3.62e-06, x1 = 0.0001802 | x2 = 5.42e-06, x1 = 0.0001802 | x2 = 7.23e-06, x1 = 0.0001802 | x2 = 9.04e-06, x1 = 0.0001802 | x2 = 1.085e-05, x1 = 0.0001802 | x2 = 1.266e-05, x1 = 0.0001802 | x2 = 1.447e-05, x1 = 0.0001802 | x2 = 1.627e-05, x1 = 0.0001802 | x2 = 1.808e-05, x1 = 0.0001802
293.15 K | 1.017 | 1.018 | 1.019 | 1.02 | 1.02 | 1.02 | 1.021 | 1.021 | 1.021 | 1.021
298.15 K | 0.903 | 0.905 | 0.906 | 0.907 | 0.907 | 0.908 | 0.908 | 0.908 | 0.909 | 0.909
303.15 K | 0.8 | 0.801 | 0.801 | 0.801 | 0.801 | 0.802 | 0.802 | 0.803 | 0.803 | 0.804
308.15 K | 0.713 | 0.713 | 0.713 | 0.713 | 0.714 | 0.714 | 0.715 | 0.716 | 0.716 | 0.716
313.15 K | 0.647 | 0.647 | 0.648 | 0.648 | 0.648 | 0.649 | 0.649 | 0.649 | 0.65 | 0.65
318.15 K | 0.601 | 0.601 | 0.601 | 0.601 | 0.602 | 0.602 | 0.602 | 0.602 | 0.603 | 0.603

CCCCC[N+](CCCCC)(CCCCC)CCCCC.O=[N+]([O-])[O-] + CCCCCCCCCCCC[N+](C)(C)C.[Br-] + O
viscosity [mPa·s], 100 kPa
Details | x2 = 5.424e-05, x1 = 0.0001802 | x2 = 0.0001085, x1 = 0.0001801 | x2 = 0.0001627, x1 = 0.0001801 | x2 = 0.0002169, x1 = 0.0001801 | x2 = 0.0002712, x1 = 0.0001801 | x2 = 0.0003254, x1 = 0.0001801 | x2 = 0.0003796, x1 = 0.0001801 | x2 = 0.0004338, x1 = 0.0001801 | x2 = 0.000488, x1 = 0.0001801 | x2 = 0.0005422, x1 = 0.0001801
293.15 K | 1.045 | 1.046 | 1.048 | 1.049 | 1.05 | 1.051 | 1.052 | 1.052 | 1.052 | 1.052
298.15 K | 0.929 | 0.931 | 0.932 | 0.933 | 0.933 | 0.934 | 0.934 | 0.934 | 0.935 | 0.935
303.15 K | 0.825 | 0.825 | 0.825 | 0.825 | 0.826 | 0.826 | 0.827 | 0.827 | 0.827 | 0.828
308.15 K | 0.735 | 0.736 | 0.736 | 0.736 | 0.736 | 0.737 | 0.737 | 0.738 | 0.739 | 0.739
313.15 K | 0.668 | 0.668 | 0.669 | 0.669 | 0.669 | 0.67 | 0.67 | 0.67 | 0.671 | 0.671
318.15 K | 0.62 | 0.621 | 0.621 | 0.622 | 0.622 | 0.622 | 0.622 | 0.622 | 0.623 | 0.623

CC(C)C[C@H](NC(=O)CN)C(=O)O + CCCCCCCCCCCC[N+](C)(C)Cc1ccccc1.[Cl-] + O
electrical conductivity [S/m], 101 kPa
Details | 293.15 K | 298.15 K | 303.15 K | 308.15 K | 313.15 K
x1 = 0.0009002, x2 = 0 | 0.00295 | 0.00335 | 0.0038 | 0.00435 | 0.00495
x1 = 0.001793, x2 = 0 | 0.00449 | 0.00524 | 0.00608 | 0.00702 | 0.00811

CCCCCCCCCCCCCC[P+](CCCCCC)(CCCCCC)CCCCCC.N#Cc1ccc[n-]1 + CCCCCC[n+]1ccn(C)c1.O=S(=O)([N-]S(=O)(=O)C(F)(F)F)C(F)(F)F
viscosity [mPa·s], 100 kPa
Details | x2 = 0 | x2 = 0.2 | x2 = 0.4 | x2 = 0.504
283.15 K | – | – | 940 | 810
288.15 K | 800 | 790 | – | –

CCCCCCCCCCCCCC[P+](CCCCCC)(CCCCCC)CCCCCC.[c-]1c[nH]nn1 + CCCCCC[n+]1ccn(C)c1.O=S(=O)([N-]S(=O)(=O)C(F)(F)F)C(F)(F)F
viscosity [mPa·s], 100 kPa
Details | 278.15 K | 283.15 K | 288.15 K | 293.15 K | 298.15 K | 303.15 K | 308.15 K | 313.15 K | 318.15 K | 323.15 K
x2 = 0.135 | 2499 | 1630 | 1087 | 744 | 527 | 382 | 284 | 215 | 166 | 131
x2 = 0.3 | 2448 | 1593 | 1061 | 725 | 511 | 369 | 274 | 206 | 159 | 125
x2 = 0.348 | 2031 | 1329 | 890 | 614 | 437 | 317 | 236 | 180 | 139 | 109
x2 = 0.45 | 1597 | 1057 | 717 | 498 | 358 | 262 | 197 | 151 | 118 | 94
x2 = 0.58 | 1211 | 820 | 567 | 402 | 294 | 219 | 168 | 131 | 104 | 84
x2 = 0.698 | 755 | 522 | 369 | 268 | 200 | 152 | 119 | 94 | 76 | 62
x2 = 0.849 | 417 | 295 | 214 | 159 | 122 | 96 | 77 | 62 | 51 | –

CCCC(C)O (stereo unspecified) + CCCCCC[n+]1ccn(C)c1.O=[N+]([O-])[O-]
Details | viscosity [mPa·s]
323.15 K, 100 kPa, x2 = 0 | 1.39

C[NH2+]CCC=C1c2ccccc2CCc2ccccc21.[Cl-] + CCCCCC[n+]1ccn(C)c1.[Br-] + O
viscosity [mPa·s], 100 kPa
Details | 288.15 K | 298.15 K | 308.15 K | 318.15 K
x1 = 0.0002039, x2 = 0.00126 | 1.185 | 0.957 | 0.792 | 0.677
x1 = 0.000208, x2 = 0.0001801 | 1.17 | 0.938 | 0.775 | 0.658
x1 = 0.0002218, x2 = 0.0007201 | 1.178 | 0.948 | 0.785 | 0.658
x1 = 0.0005639, x2 = 0.0001801 | 1.181 | 0.948 | 0.785 | 0.667
x1 = 0.0005652, x2 = 0.001259 | 1.196 | 0.967 | 0.802 | 0.688
x1 = 0.0005656, x2 = 0.0007199 | 1.189 | 0.957 | 0.794 | 0.667
x1 = 0.0009086, x2 = 0.0007196 | 1.201 | 0.967 | 0.803 | 0.676
x1 = 0.0009302, x2 = 0.00018 | 1.192 | 0.958 | 0.795 | 0.676
x1 = 0.0009557, x2 = 0.001259 | 1.208 | 0.978 | 0.812 | 0.699
x1 = 0.001281, x2 = 0.001258 | 1.22 | 0.989 | 0.822 | 0.709
x1 = 0.001285, x2 = 0.0001799 | 1.204 | 0.969 | 0.805 | 0.685
x1 = 0.001294, x2 = 0.0007194 | 1.213 | 0.977 | 0.812 | 0.685
x1 = 0.001641, x2 = 0.0001799 | 1.217 | 0.98 | 0.815 | 0.694
x1 = 0.001649, x2 = 0.0007191 | 1.226 | 0.988 | 0.821 | 0.694
x1 = 0.001666, x2 = 0.001258 | 1.233 | 1.001 | 0.832 | 0.719
x1 = 0.001985, x2 = 0.0001798 | 1.23 | 0.991 | 0.825 | 0.703
x1 = 0.002032, x2 = 0.0007188 | 1.239 | 0.999 | 0.831 | 0.703
x1 = 0.002034, x2 = 0.001257 | 1.246 | 1.013 | 0.843 | 0.728
x1 = 0.002348, x2 = 0.0001797 | 1.244 | 1.002 | 0.835 | 0.712
x1 = 0.002385, x2 = 0.0007186 | 1.253 | 1.012 | 0.842 | 0.712
x1 = 0.002389, x2 = 0.001257 | 1.26 | 1.025 | 0.854 | 0.737
x1 = 0.00272, x2 = 0.0001797 | 1.258 | 1.014 | 0.845 | 0.721
x1 = 0.002762, x2 = 0.0007183 | 1.267 | 1.025 | 0.854 | 0.721
x1 = 0.002776, x2 = 0.001256 | 1.275 | 1.037 | 0.865 | 0.746
x1 = 0.003079, x2 = 0.0001796 | 1.273 | 1.026 | 0.855 | 0.73
x1 = 0.003114, x2 = 0.000718 | 1.282 | 1.037 | 0.866 | 0.731
x1 = 0.003126, x2 = 0.001256 | 1.291 | 1.049 | 0.876 | 0.755
x1 = 0.003445, x2 = 0.0001796 | 1.288 | 1.038 | 0.865 | 0.739
x1 = 0.003472, x2 = 0.001255 | 1.307 | 1.063 | 0.888 | 0.764
x1 = 0.003507, x2 = 0.0007177 | 1.297 | 1.05 | 0.878 | 0.741

CCCCCCCCCCCCCC[P+](CCCCCC)(CCCCCC)CCCCCC.N#Cc1ccc[n-]1 + CCCCCC[n+]1ccn(C)c1C.O=S(=O)([N-]S(=O)(=O)C(F)(F)F)C(F)(F)F
100 kPa
Details | viscosity [mPa·s]
278.15 K, x2 = 0.799 | 900
283.15 K, x2 = 0.601 | 900
288.15 K, x2 = 0 | 800
288.15 K, x2 = 0.098 | 870
288.15 K, x2 = 0.301 | 760

CCCC[n+]1ccn(C)c1.[Br-] + CCCCOCCO
viscosity [mPa·s], 100 kPa
Details | x1 = 0.1007 | x1 = 0.2003 | x1 = 0.3007 | x1 = 0.4003 | x1 = 0.5 | x1 = 0.5992 | x1 = 0.7002 | x1 = 0.8003 | x1 = 0.8978 | x1 = 1
298.15 K | 18.4 | 56.8 | 108 | 155 | 201 | 263 | 374 | 577 | 920 | 1451
303.15 K | 12.2 | 32.5 | 59.6 | 86.7 | 115 | 152 | 212 | 320 | 511 | 837
308.15 K | 9.08 | 22.8 | 40.7 | 59.4 | 77 | 98 | 132 | 187 | 297 | 506
313.15 K | 6.85 | 16.2 | 29.1 | 41.7 | 54.2 | 67.6 | 87.9 | 122 | 188 | 330

CC(O)C(C)O (stereo unspecified) + CCCC[N+](C)(C)C.O=S(=O)([N-]S(=O)(=O)C(F)(F)F)C(F)(F)F
101 kPa
Details | viscosity [mPa·s]
323.15 K, x1 = 0.557 | 16.54
323.15 K, x1 = 0.6216 | 16.03
328.15 K, x1 = 0.557 | 13.6
333.15 K, x1 = 0.3137 | 15.23
333.15 K, x1 = 0.4515 | 13.1
333.15 K, x1 = 0.557 | 11.67
343.15 K, x1 = 1 | 6.7
